Test results from patent US20120251551A1, “Substituted (Heteroarylmethyl)thiohydantoins” (BAYER PHARMA AKTIENGESELLSCHAFT, priority 2009, published 2012).
Changes are numbered by the printed parent chain.

Tests used:
[1] = biological target: T1, wild-type human androgen receptor (Homo sapiens, UniProt P10275); assay: Cell-based transactivation assay for wild-type human androgen receptor (PC-3 cells, MMTV-luciferase reporter)
T1 construct: expressed in transfected cells
T1 sequence (P10275 1-920): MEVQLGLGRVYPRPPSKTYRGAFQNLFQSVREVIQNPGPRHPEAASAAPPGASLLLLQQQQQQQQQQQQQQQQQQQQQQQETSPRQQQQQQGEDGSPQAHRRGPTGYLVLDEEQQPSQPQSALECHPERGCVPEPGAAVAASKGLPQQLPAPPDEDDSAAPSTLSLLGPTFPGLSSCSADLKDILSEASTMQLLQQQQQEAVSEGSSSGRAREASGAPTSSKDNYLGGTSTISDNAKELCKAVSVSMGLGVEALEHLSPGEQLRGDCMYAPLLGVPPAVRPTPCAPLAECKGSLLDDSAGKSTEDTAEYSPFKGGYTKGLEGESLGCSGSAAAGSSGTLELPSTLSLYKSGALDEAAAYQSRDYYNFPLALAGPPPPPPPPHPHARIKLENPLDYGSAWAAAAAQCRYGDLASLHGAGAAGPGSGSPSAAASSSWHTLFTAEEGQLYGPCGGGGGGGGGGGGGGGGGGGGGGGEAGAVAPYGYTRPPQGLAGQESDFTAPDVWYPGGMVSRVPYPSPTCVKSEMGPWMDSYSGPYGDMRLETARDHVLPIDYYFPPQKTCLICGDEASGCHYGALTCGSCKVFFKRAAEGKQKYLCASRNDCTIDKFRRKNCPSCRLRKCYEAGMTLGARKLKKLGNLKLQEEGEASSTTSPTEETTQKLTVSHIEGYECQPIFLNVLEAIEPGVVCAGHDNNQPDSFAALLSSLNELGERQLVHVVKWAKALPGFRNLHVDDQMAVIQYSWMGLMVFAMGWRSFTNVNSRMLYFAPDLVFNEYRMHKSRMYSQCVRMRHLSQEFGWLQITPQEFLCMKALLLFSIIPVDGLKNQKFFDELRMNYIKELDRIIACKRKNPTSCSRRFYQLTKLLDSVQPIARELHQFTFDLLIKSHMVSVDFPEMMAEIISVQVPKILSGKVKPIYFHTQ
Protocol: Cell-Based Transactivation Assay for Wild-Type Human Androgen Receptor
PC-3 cells (Kaighn et al., Invest. Urol. 17:16-23, 1979) stably transfected with the human androgen receptor (Swiss-Prot Acc. No. P10275, Entry Version 159, Sequence Version 2) and a reporter plasmid based on pGL4.14 (#E6691, Promega Corporation, Madison, Wis., USA) containing the MMTV promoter (Cato et al., EMBO J. 6:363-8, 1987) were used. They were grown in 5% charcoal-stripped medium and seeded at a concentration of 1000 cells per well in a 384-well plate. For determination of antagonistic activity, the plate additionally contained the compound to be tested at a concentration range varying from 5.12×10^−12 to 1×10^−5 M. The assay was performed in presence of 1×10^−10 R1881 (also known as methyltrienolone). After overnight incubation at 37° C. in a 5% CO2 atmosphere, 15 μl of Steady Glo Lysis and Detection reagent (Steady Glo Luciferase assay system E2550 from Promega Corporation. Madison, Wis., USA) were added. IC50 was calculated for anti-androgenic activity as well as percentage inhibition in presence of 2 μM compound in comparison to non-stimulated luciferase signal. Agonistic activity was determined using the same concentration range of compound in the absence of R1881 by measuring Luciferase activity as above. EC50 was calculated for androgenic activity. Assay/read plates were used (Polystyrol; 384, NV-white cell culture plates; Perkin Elmer).

[2] = biological target: T2, human androgen receptor W741L mutant (Homo sapiens, UniProt P10275, W742L); assay: Cell-based transactivation assay for human androgen receptor mutant W741L
T2 construct: expressed in transfected cells; host or cells: PC-3 cells, transient transfection with a pSG5-derived plasmid
T2 sequence (P10275 1-920 W742L): T1 sequence (P10275 1-920) with W742L
Protocol: (§1) Cell-Based Transactivation Assay for Human Androgen Receptor Mutant W741L or W741C
(§2) PC-3 cells (Kaighn et al., Invest. Urol. 17:16-23, 1979) were grown in 5% charcoal-stripped medium and seeded at a concentration of 10000 cells per well in a 96-well plate. They were transiently transfected with a pSG5-derived plasmid (#216201 from Stratagene, La Jolla, Calif., USA) coding for the human androgen receptor W741L or W741C mutant Mara et al., Cancer Research, 63: 149-153, 2003) and an MMTV-Luciferase reporter plasmid based on pGL4.14 14 (#E6691, Promega Corporation, Madison, Wis., USA). The compound to be tested was added at a concentration range varying from 1×10^−9 to 1×10 M together with 1×10^−10 R1881. After 24 h incubation at 37° C. in a 5% CO2 atmosphere, 100 μl of Steady Glo Lysis and Detection reagent (Steady Glo Luciferase assay system E2550 from Promega Corporation. Madison, Wis., USA) were added. Antagonistic activity was determined by measuring Luciferase activity in a Victor 3 Luminometer (PerkinElmer, Waltham, Mass., USA) using the Steady Glo Luciferase Assay (E2550, Promega). IC50 values were calculated for anti-androgenic activity.

[3] = biological target: T3, human androgen receptor W741C mutant (Homo sapiens, UniProt P10275, W742C); assay: Cell-based transactivation assay for human androgen receptor mutant W741C
T3 construct: expressed in transfected cells; host or cells: PC-3 cells, transient transfection with a pSG5-derived plasmid
T3 sequence (P10275 1-920 W742C): T1 sequence (P10275 1-920) with W742C
Protocol: as §1, §2

| SMILES | EC50 [1] [nM] | IC50 [2] [nM] | IC50 [3] [nM] |
| --- | --- | --- | --- |
| CN1C(=S)N(c2ccc(C#N)c(C(F)(F)F)c2)C(=O)C1(C)C [2-(Trifluoromethyl)-4-(3,4,4-trimethyl-5-oxo-2-thioxoimidazolidin-1-yl)benzonitrile, reference compound] | 7.97 | 159 | 21.2 |
| CC1(C)C(=O)N(c2ccc(C#N)c(C(F)(F)F)c2)C(=S)N1CCCCO [4-[3-(4-Hydroxybutyl)-4,4-dimethyl-5-oxo-2-thioxoimidazolidin-1-yl]-2-(trifluoromethyl)benzonitrile, reference compound] | 8.13 | 89.7 | 27.1 |
| CC1(C)C(=O)N(c2ccc(C#N)c(C(F)(F)F)c2)C(=S)N1Cc1ccc(F)cc1 [Comparative data^4] | 1.79 | > 1000 | > 1000 |
| CC1(C)C(=O)N(c2ccc(C#N)c(C(F)(F)F)c2)C(=S)N1Cc1ccccc1 [Comparative data^4] | 46.4 | 166 | 142 |
| CC1(C)C(=O)N(c2ccc(C#N)c(C(F)(F)F)c2)C(=S)N1Cc1ccc(-n2ccnc2)nc1 [Example 1, 4-(3-{[6-(1H-Imidazol-1-yl)pyridin-3-yl]methyl}-4,4-dimethyl-5-oxo-2-thioxoimidazolidin-1-yl)-2-(trifluoromethyl)benzonitrile] | > 10000 | 173 | 216 |
| CC1(C)C(=O)N(c2ccc(C#N)c(C(F)(F)F)c2)C(=S)N1Cc1ccc(C(F)(F)F)nc1 [Example 2, 4-(4,4-Dimethyl-5-oxo-2-thioxo-3-{[6-(trifluoromethyl)pyridin-3-yl]methyl}imidazolidin-1-yl)-2-(trifluoromethyl)benzonitrile] | 5430 | 86.7 |  |
| CC1(C)C(=O)N(c2ccc(C#N)c(C(F)(F)F)c2)C(=S)N1Cc1ccc(N2CCOCC2)nc1 [Example 4, 4-(4,4-Dimethyl-3-{[6-(morpholin-4-yl)pyridin-3-yl]methyl}-5-oxo-2-thioxoimidazolidin-1-yl)-2-(trifluoromethyl)benzonitrile] | > 10000 | 89.2 | 270 |
| CC1(C)C(=O)N(c2ccc(C#N)c(C(F)(F)F)c2)C(=S)N1Cc1ccc(N2CCS(=N)(=O)CC2)nc1 [Example 9, 4-(3-{[6-(1-Imino-1-oxido-1λ^6-thiomorpholin-4-yl)pyridin-3-yl]methyl}-4,4-dimethyl-5-oxo-2-thioxoimidazolidin-1-yl)-2-(trifluoromethyl)benzonitrile] | > 10000 | 275 |  |
| CC(C)(O)COc1ccc(CN2C(=S)N(c3ccc(C#N)c(C(F)(F)F)c3)C(=O)C2(C)C)cn1 [Example 10, 4-(3-{[6-(2-Hydroxy-2-methylpropoxy)pyridin-3-yl]methyl}-4,4-dimethyl-5-oxo-2-thioxoimidazolidin-1-yl)-2-(trifluoromethyl)benzonitrile] | > 10000 | 285 | 115 |
| Cc1nc(C(F)(F)F)ccc1CN1C(=S)N(c2ccc(C#N)c(C(F)(F)F)c2)C(=O)C1(C)C [Example 13, 4-(4,4-Dimethyl-3-{[2-methyl-6-(trifluoromethyl)pyridin-3-yl]methyl}-5-oxo-2-thioxoimidazolidin-1-yl)-2-(trifluoromethyl)benzonitrile] | > 10000 | 93.7 |  |
